Experimental data reported in PMC2643072 (Journal of medicinal chemistry, 2008).

Molecular target: T1, porcine erythrocyte μ-calpain (Sus scrofa, UniProt P35750)
T1 sequence (P35750 1-714): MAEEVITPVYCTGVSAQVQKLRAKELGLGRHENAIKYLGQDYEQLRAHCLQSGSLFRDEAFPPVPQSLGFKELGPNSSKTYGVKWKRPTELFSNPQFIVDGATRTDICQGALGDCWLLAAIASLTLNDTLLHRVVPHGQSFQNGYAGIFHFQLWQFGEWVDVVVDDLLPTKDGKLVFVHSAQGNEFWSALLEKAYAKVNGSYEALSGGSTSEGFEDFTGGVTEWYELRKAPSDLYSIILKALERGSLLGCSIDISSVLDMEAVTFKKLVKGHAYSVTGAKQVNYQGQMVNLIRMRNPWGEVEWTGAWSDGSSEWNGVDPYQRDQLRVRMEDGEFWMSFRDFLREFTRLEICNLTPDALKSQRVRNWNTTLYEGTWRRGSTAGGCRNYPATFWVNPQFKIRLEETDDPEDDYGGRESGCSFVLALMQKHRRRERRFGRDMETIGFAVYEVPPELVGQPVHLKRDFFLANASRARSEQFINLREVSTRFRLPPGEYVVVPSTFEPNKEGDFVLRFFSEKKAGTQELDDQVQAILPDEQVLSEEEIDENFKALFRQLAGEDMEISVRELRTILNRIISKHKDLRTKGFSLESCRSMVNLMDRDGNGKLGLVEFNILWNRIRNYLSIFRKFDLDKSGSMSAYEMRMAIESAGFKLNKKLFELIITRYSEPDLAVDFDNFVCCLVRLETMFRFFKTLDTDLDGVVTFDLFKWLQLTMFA
T1 sequence (P04574 1-266 partner): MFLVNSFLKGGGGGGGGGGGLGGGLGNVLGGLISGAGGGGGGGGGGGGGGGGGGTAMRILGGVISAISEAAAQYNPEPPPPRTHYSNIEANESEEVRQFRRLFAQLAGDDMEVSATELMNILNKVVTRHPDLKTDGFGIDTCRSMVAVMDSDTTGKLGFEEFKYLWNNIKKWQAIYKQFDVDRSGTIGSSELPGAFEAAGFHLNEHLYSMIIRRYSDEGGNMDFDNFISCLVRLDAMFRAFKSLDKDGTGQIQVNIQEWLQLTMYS
Assay: μ-Calpain inhibition assay
Format: biochemical

| fold more potent than 2a and 2b (μ-calpain inhibition) (planar fluorene cap vs cyclohexyl (2a) and adamantyl (2b) caps) | μ-calpain inhibitory potency relative to 2c (diphenylpropionyl (2d) vs diphenylacetyl (2c) N-terminal cap) | Compound |
| --- | --- | --- |
| over 5 fold | – | CC(C)C[C@H](NC(=O)CC1c2ccccc2-c2ccccc21)C(=O)NC(Cc1ccccc1)C(=O)C(=O)O (stereo partly drawn) [Compound 2e, N-(9-Fluoreneacetyl)-L-leucyl-2-oxo-3(R,S)-amino-4-phenylbutanoic acid] |
| – | about twice as potent | CC(C)C[C@H](NC(=O)CC(c1ccccc1)c1ccccc1)C(=O)NC(Cc1ccccc1)C(=O)C(=O)O (stereo partly drawn) [Compound 2d, N-(3,3-Diphenylpropionyl)-L-leucyl-2-oxo-3(R,S)-amino-4-phenylbutanoic acid] |
